According to patent US20220054532A1, “VETERINARY COMPOSITIONS AND METHODS OF USE THEREFOR” (priority 2019, published 2022):

Tests used:
Format in all cases: in vivo
[1] = system: dogs suffering from seizures; assay: Example 6: seizures in dogs; conditions: seizure scale 1 (seizure-free) to 10 (daily or multiple seizures); for Initial Score: day 0; for Final Score: day 60, BID
From the text: This example examines the ability of embodiments of the invention versus phenobarbital to treat seizures.
The patient group is twenty-four dogs suffering from seizures as diagnosed by their referring veterinarian. The patient group is broken into six groups of four animals. The first group receives phenobarbital as the sole active agent; the second group receives a composition comprising phenobarbital and Keppra®; the third group receives a composition comprising HMW HA as the sole active agent; the fourth group receives a composition comprising CBD as the sole active agent; the fifth group receives a composition comprising HMW HA and CBD as the active agents; and the sixth group receives a composition comprising HMW HA, CBD, valerian root, and scutillaria as the active agents.
Each composition is administered for a period of sixty (60) days, BID. Each dog is evaluated on days 0 (“Initial Score”), 15, 30, 45, and 60 (“Final Score”) of treatment. The results are averaged and characterized on a scale of 1 (seizure-free) to 10 (daily seizures or multiple seizures during the event).
The following canine scores are observed and the results depicted in FIG. 6: […]

[2] = system: cats suffering from GI-specific inflammation; assay: Example 3: GI-specific inflammation, owner-rated symptom reduction (feline); conditions: symptom reduction score 0 (no reduction) to 4 (resolution of symptoms); for Final Score: after 28 days BID
From the text: This example examines the ability of embodiments of the invention versus Pepcid® to treat unwanted GI-specific inflammation characterized by gastritis, reflux, vomiting, diarrhea, and inappetence.
The first patient group is twenty dogs suffering from GI-specific inflammation. The second patient group is twenty cats suffering from GI-specific inflammation. Each patient group is broken into five groups of four animals. The first groups receive Pepcid® as the sole active agent; the second groups receive a composition comprising HMW HA as the sole active agent; the third groups receive a composition comprising CBD as the sole active agent; the fourth groups receive a composition comprising HMW HA and CBD as the active agents; and the fifth groups receive a composition comprising HMW HA, CBD, and glutathione as the active agents.
Each composition is administered for a period of twenty-eight (28) days, BID. The owner observes potential reduction of symptoms at the end of treatment and rates the reduction as no reduction (score of 0), mild reduction (score of 1), moderate reduction (score of 2), significant reduction (score of 3), or resolution of symptoms (score of 4).
The following feline scores are observed and the results depicted in FIG. 3b: […]

[3] = system: dogs suffering from heart failure; assay: Example 15: heart failure in dogs (CBD Complex); conditions: heart failure scale 1 (few to no clinical signs) to 10 (severe); for Initial Score: day 0; for Final Score: day 90, BID
From the text: This example examines the ability of embodiments of the invention versus enalapril to treat heart failure.
The patient group is twenty-four dogs suffering from heart failure.
The patient group is broken into six groups of four dogs. The first group receives enalapril as the sole active agent; the second group receives a composition comprising enalapril and Lasix®; the third group receives a composition comprising HMW HA as the sole active agent; the fourth group receives a composition comprising CBD as the sole active agent; the fifth group receives a composition comprising HMW HA and CBD Complex as the active agents; and the sixth group receives a composition comprising HMW HA, CBD Complex, liposomal CoQ10, hawthorn berry, and ginko biloba as the active agents.
Each composition is administered for a period of ninety (90) days, BID. Each animal is evaluated on days 0 (“Initial Score”), 30, 60, and 90 (“Final Score”) of treatment. The results are averaged and characterized on a scale of 1 (few to no clinical signs of heart failure) to 10 (severe heart failure).

[4] = system: dogs with a history of severe, chronic skin issues, atopy, pruritis, yeast overgrowth, and/or infection; assay: Example 16: skin conditions (itch score) and side effects in dogs (CBD Complex); conditions: for Average Side Effect Score: dogs with skin conditions, 60 days BID; for Initial Itch Score / Final Itch Score: itch scale 0 (no itching) to 10 (extremely severe); for Initial Itch Score: day 0; for Final Itch Score: day 60, BID
From the text: This example examines the ability of embodiments of the invention versus prednisone to treat skin conditions.
The patient group is twenty-four dogs with a history of severe, chronic skin issues, atopy, pruritis, yeast overgrowth, and/or infection, as diagnosed by their referring veterinarian. The patient group is broken into six groups of four animals. The first group receives prednisone as the sole active agent; the second group receives a composition comprising prednisone and HMW HA as the active agents; the third group receives a composition comprising HMW HA as the sole active agent; the fourth group receives a composition comprising CBD as the sole active agent; the fifth group receives a composition comprising HMW HA and CBD Complex as the active agents; and the sixth group receives a composition comprising HMW HA, CBD Complex, quercetin, and nettles as the active agents.
Each composition is administered for a period of sixty (60) days, BID. Each dog is evaluated on days 0 (“Initial Score”), 20, 40, and 60 (“Final Score”) of treatment. The results are averaged and characterized on a scale of 0 (no itching—normal dog), 2 (very mild itching—only occasional episodes), 4 (mild itching), 6 (moderate itching—regular episodes), 8 (severe itching—prolonged episodes), to 10 (extremely severe itching—almost continuous).

[5] = system: cats suffering behavior aberrations and/or anxiety; assay: Example 5: behavior aberrations and anxiety, Fe-BARQ (feline); conditions: Fe-BARQ day 0 vs 60, SID, 0 (no improvement) to 3 (marked improvement)
From the text: This example examines the ability of embodiments of the invention versus Clomicalm® to reduce behavior aberrations and anxiety.
The first patient group is twenty dogs suffering behavior aberrations and/or anxiety, as determined by the canine behavioral assessment and research questionnaire (“C-BARQ”). See, e.g., P. Wiener et al., Use of questionnaire-based data to assess dog personality, 16 JOURNAL OF VETERINARY BEHAVIOR 81-85 (2016). The second patient group is twenty cats suffering behavior aberrations and/or anxiety, as determined by the feline behavioral assessment and research questionnaire (“Fe-BARQ”).
Each group is broken into five groups of four animals. The first group receives Clomicalm® as the sole active agent; the second group receives a composition comprising HMW HA as the sole active agent; the third group receives a composition comprising CBD as the sole active agent; the fourth group receives a composition comprising HMW HA and CBD as the active agents; and the fifth group receives a composition comprising HMW HA, CBD, valerian root, and scutillaria as the active agents.
Each composition is administered for a period of sixty (60) days, once a day (“SID”). Owners complete the species-appropriate C-BARQ or Fe-BARQ on days 0 and 60 of treatment. The results from the overall questionnaire are averaged and characterized as no improvement (score of 0), mild improvement (score of 1), moderate improvement (score of 2), or marked improvement (score of 3).
The following feline scores are observed and the results depicted in FIG. 5b: […]

Row | Compound | Initial Score [1] | Final Score [1] | Final Score [2] | Initial Score [2] | Initial Score [3] | Final Score [3] | Average Side Effect Score [4] | Initial Itch Score [4] | Final Itch Score [4] | Improvement Score [5]
1 | C=C(C)[C@@H]1CCC(C)=C[C@H]1c1c(O)cc(CCCCC)cc1O [CBD Alone, 2-[(1R,6R)-3-methyl-6-prop-1-en-2-ylcyclohex-2-en-1-yl]-5-pentylbenzene-1,3-diol] | 9 | 4 | 2 | 0 | 8 | 4 | .5 | 9 | 5 | 1.8
2 | hyaluronic acid [HMW HA Alone] | 9 | 5 | 3 | 0 | 8 | 4 | 4 | 9 | 7 | 1
